Consider one compound from patent publication US7973219B2, “Method for producing transgenic plants resistant to weed control compounds which disrupt the porphyrin pathways of plants” (Sumitomo Chemical Company, Limited, priority 1998, dated 2011).

The test system of experiment [1] is E. coli BT3/pACYCSP+pYAGF strain. The experiment is described as follows: Growth of E. coli BT3/pACYCSP+pYAGF with herbicidal compound. It is filed as cell-based, Escherichia coli. The note with it: 1 ppm, 18 hours culture, Table 15. From the text:
(§1) According to the description of Gibson, L. C. D. et al., Proc. Natl. Acad. Sci. USA, 92; p 1941 (1995), the DNA fragment containing bchH gene prepared in Example 1 was digested with the restriction enzymes NdeI and BglII. The resultant DNA fragment was inserted between NdeI restriction site and BamHI restriction site of expression vector pET11a (manufactured by Stratagene) to obtain plasmid pETBCH (FIG. 1). This plasmid pETBCH was introduced into E. coli BL21(DE3) strain competent cells (manufactured by Stratagene) according to the manual attached to the competent cells to obtain E. coli BL21(DE3)/pETBCH strain. The strain was inoculated into 1.5 ml LB liquid culture medium (1% tryptone, 0.5% yeast extract, 0.5% NaCl) containing 100 μg/ml ampicillin in a tube (14×10 mm), and the tube was covered with aluminum foil (hereinafter referred to as dark conditions), cultured with shaking at 37° C. under light of fluorescent lamp (about 8000 lux). When the absorbance at 600 nm of the liquid culture medium became about 0.6, isopropyl β-D-thiogalactopyranoside (IPTG) was added to the liquid culture medium so that the final concentration was 0.4 mM, and the culture was continued for about additional 20 hours. […]

Experiment [2] concerns E. coli BT3/pACYCSP+pHASYS strain. The experiment is described as follows: Growth of E. coli BT3/pACYCSP+pHASYS with herbicidal compound. The experiment is classed as cell-based, Escherichia coli. The note with it: 1 ppm, 18 hours culture, Table 15.
Text: as §1

`C#CCOc1cc(N2C(=O)C3=C(CCCC3)C2=O)c(F)cc1Cl` [Structure 8]: the Relative absorbance in experiment [1] (in the dark) amounted to 0.96; in experiment [1] (in the light), 0.62; in experiment [2] (in the dark), 0.96; in experiment [2] (in the light) it was 0.65.
